Patent US20160280731A1, “CRYSTALLINE FORMS B, C, and D OF CANAGLIFLOZIN” (CRYSTAL PHARMATECH CO., LTD, priority 2013, published 2016)
In brackets after ≈: the same amount, converted by molar mass.

Tests used:
[1] = Stability assessment of Form B under stress conditions (XRPD after storage); type: physicochemical; details: 30 days; for Final form: dish open, XRPD
Description: Two samples of canagliflozin Form B were stored under 25° C./60% RH and 40° C./75% RH, respectively, with dish open for 30 days. The solid samples were analyzed by XRPD.

[2] = Kinetic solubility in FeSSIF and FaSSIF; type: physicochemical; details: for Solubility in comparison to the hemihydrate form (WO2008069327A1): FeSSIF and FaSSIF, 1 h, 4 h, 24 h; for Solubility in comparison to the hemihydrate form (WO2008069327A1) / solubility at 1 h / solubility at 4 h / solubility at 24 h: RT; for solubility at 1 h / solubility at 4 h / solubility at 24 h: thermodynamic from solid
Description: Kinetic solubility of canagliflozin in crystalline Form B and its hemihydrate form in fed state simulated intestinal fluid (FeSSIF) and fasted state simulated intestinal fluid (FaSSIF) were measured using the following procedures:
1. Weighed approximately 30 mg of compound into a tared 4 mL plastic vial and recorded the actual weight of the compound.
2. Added 3 mL of water or bio-relevant medium into each vial.
3. Covered the vials with caps and kept all the suspension samples stirring at RT using a rolling incubator with a speed of 25 r/min.
4. Sampled at 1 h, 4 h and 24 h respectively.
5. Centrifuged the filtration tubes in a speed of 8500 rpm for 3 minutes at RT, collected 0.2 mL supernatant for HPLC quantification determination and the rest of solution for pH measurement, and separated the solid for XRPD characterization.
Kinetic solubility of canagliflozin Form C and hemihydrate in fed state simulated intestinal fluid (FeSSIF) and fasted state simulated intestinal fluid (FaSSIF) were measured using the following procedures:
5. Centrifuged filtration tubes in a speed of 8500 rpm for 3 minutes at RT, collected 0.2 mL supernatant for HPLC quantification determination and the rest of solution for pH measurement, and separated the solid for XRPD characterization.

| Structure (SMILES) | Stability under the stress conditions ([1]; 25° C./60% RH and 40° C./75% RH) | Final form ([1]; stored under 25° C./60% RH) | Final form ([1]; stored under 40° C./75% RH) | Solubility in comparison to the hemihydrate form (WO2008069327A1) [2] | solubility at 1 h ([2]; fasted state simulated intestinal fluid (FaSSIF), fassif, time point 1 h) | solubility at 4 h ([2]; fasted state simulated intestinal fluid (FaSSIF), fassif, time point 4 h) | solubility at 24 h ([2]; fasted state simulated intestinal fluid (FaSSIF), fassif, time point 24 h) | solubility at 1 h ([2]; fed state simulated intestinal fluid (FeSSIF), fessif, time point 1 h) | solubility at 4 h ([2]; fed state simulated intestinal fluid (FeSSIF), fessif, time point 4 h) | solubility at 24 h ([2]; fed state simulated intestinal fluid (FeSSIF), fessif, time point 24 h) | Solubility at RT ([2]; FaSSIF, time point 1 h) | Solubility at RT ([2]; FaSSIF, time point 4 h) | Solubility at RT ([2]; FaSSIF, time point 24 h) | Solubility at RT ([2]; FeSSIF, time point 1 h) | Solubility at RT ([2]; FeSSIF, time point 4 h) | Solubility at RT ([2]; FeSSIF, time point 24 h) |
| --- | --- | --- | --- | --- | --- | --- | --- | --- | --- | --- | --- | --- | --- | --- | --- | --- |
| Cc1ccc([C@@H]2O[C@H](CO)[C@@H](O)[C@H](O)[C@H]2O)cc1Cc1ccc(-c2ccc(F)cc2)s1 [Form B, (2S,3R,4R,5S,6R)-2-{3-[5-[4-fluoro-phenyl)-thiophen-2-ylmethyl]-4-methyl-phenyl -}-6-hydroxymethyl-tetrahydro-pyran-3,4,5-triol] | stable | Form B | Form B | higher solubility | 500 µg/mL (≈ 1.12 mM) | 510 µg/mL (≈ 1.15 mM) | 480 µg/mL (≈ 1.08 mM) | 4720 µg/mL (≈ 10.6 mM) | 4760 µg/mL (≈ 10.7 mM) | 4350 µg/mL (≈ 9.79 mM) |  |  |  |  |  |  |
| Cc1ccc([C@@H]2O[C@H](CO)[C@@H](O)[C@H](O)[C@H]2O)cc1Cc1ccc(-c2ccc(F)cc2)s1 [Form C, (2S,3R,4R,5S,6R)-2-{3-[5-[4-fluoro-phenyl)-thiophen-2-ylmethyl]-4-methyl-phenyl -}-6-hydroxymethyl-tetrahydro-pyran-3,4,5-triol] |  |  |  | higher solubility |  |  |  |  |  |  | 410 µg/mL (≈ 0.922 mM) | 440 µg/mL (≈ 0.99 mM) | 420 µg/mL (≈ 0.945 mM) | 4600 µg/mL (≈ 10.3 mM) | 4700 µg/mL (≈ 10.6 mM) | 4500 µg/mL (≈ 10.1 mM) |
| Cc1ccc([C@@H]2O[C@H](CO)[C@@H](O)[C@H](O)[C@H]2O)cc1Cc1ccc(-c2ccc(F)cc2)s1 [WO2008069327A1 hemihydrate, (2S,3R,4R,5S,6R)-2-{3-[5-[4-fluoro-phenyl)-thiophen-2-ylmethyl]-4-methyl-phenyl -}-6-hydroxymethyl-tetrahydro-pyran-3,4,5-triol, reference compound] |  |  |  |  |  |  |  |  |  |  | 360 µg/mL | 370 µg/mL | 370 µg/mL | 3340 µg/mL | 3500 µg/mL | 3700 µg/mL |
